Measurements: patent publication US11497738B2, “Di-substituted pyrazole compounds for the treatment of diseases” (FGH BIOTECH, INC., priority 2016, dated 2022)

System: SCD1 expression
Experiment: Inhibition assay: qPCR of SCD1 expression in HepG2 cells (Biological Example 1)
Type: cell-based
Conditions: Homo sapiens, 24 hours; for inhibition at 10 µM: read-out: Inhibition Percentage (%) 10 μM (SCD1 expression); for inhibition at 1 µM: read-out: Inhibition Percentage (%) 1 μM (SCD1 expression)
Method: HepG2 cells were grown in Dulbecco's Modified Eagle Medium (DMEM) containing 5% FBS and antibiotic-antimycotic in a humidified incubator at 37° C. with 5% CO2. All three components were purchased from ThermoFisher Scientific (Catalog numbers are 11995073, 26140079, and 15240062, respectively). Treatments were done in duplicates for each dose of each compound. For control and treated each treatment, 400,000 HepG2 cells were seeded onto 1 well of 24-well plate. After one day in culture, cells were treated with the test compound (1 μM and/or 10 μM, as indicated below in Table 1) for 24 hours in DMEM with 5% FBS. Compounds were diluted using DMSO from 20 mM stocks. Total RNAs were extracted using RNA extraction kit (Cat #: 45001163, Fisher Scientific) or Trizol. If Trizol was used, RNAs were treated with DNase I (cat #: 18068015, ThermoFisher Scientific) before qPCR. RNA concentrations were measured on a Nanodrop. One-step qPCR were performed using SYBR Green One Step qPCR Kit (Cat #: B25002, Biotool). 10 ng RNA was used in each 10-ul reaction. Triplicate reactions were done for each RNA sample. qPCR was performed on an ABI StepOnePlus using the program: Holding stage step 1, 50° C. 3 min, step 2, 95° C. 5 min; Cycling stage (40 cycles) step 1, 95° C. 10 sec, step 2, 60° C. 30 sec. Primer sequence was as follows: SCD1, 5′-[…]-3′/5′-[…]-3′.
All data was measured in HepG2 cells. % inhibition data of SCD1 expression are provided in Table 1. % inhibition at 10 μM is provided as follows: A≥75%; 75%>B≥50%; 50%>C≥10%. % inhibition at 1 μM is provided as follows: A1≥30%; 30%>B1≥2%. NI means no inhibition in the assay at the indicated concentration of compound tested. NT means not tested.

## CCCc1cc(-n2cc(-c3ccc(NS(=O)(=O)CC4CC4)cc3)cn2)ccn1 [Example 2, 1-cyclopropyl-N-(4-(1-(2-propylpyridin-4-yl)-1H-pyrazol-4-yl)phenyl)methanesulfonamide]
  inhibition at 10 µM: > 75%

## CCCc1cc(-n2cc(-c3ncc(NS(C)(=O)=O)cc3Cl)cn2)ccn1 [Example 30, N-(5-chloro-6-(1-(2-propylpyridin-4-yl)-1H-pyrazol-4-yl)pyridin-3-yl)methanesulfonamide]
  inhibition at 10 µM: 50 to 75%

## CCCc1cc(-n2cc(-c3ccc(NCC(C)C)nc3)c(C)n2)ccn1 [Example 53, N-isobutyl-5-(3-methyl-1-(2-propylpyridin-4-yl)-1H-pyrazol-4-yl)pyridin-2-amine]
  inhibition at 1 µM: 2 to 30%
  inhibition at 10 µM: > 75%

## CCCc1cc(-n2cc(-c3ncc(NS(=O)(=O)C4CC4)cc3Cl)cn2)ccn1 [Example 28, N-(5-chloro-6-(1-(2-propylpyridin-4-yl)-1H-pyrazol-4-yl)pyridin-3-yl)cyclopropanesulfonamide]
  inhibition at 1 µM: 2 to 30%
  inhibition at 10 µM: > 75%

## CCCc1cc(-n2cc(-c3ccc(NC(C)C)nc3)cn2)ccn1 [Example 7, N-isopropyl-5-(1-(2-propylpyridin-4-yl)-1H-pyrazol-4-yl)pyridin-2-amine]
  inhibition at 10 µM: > 75%

## CCCc1cc(-n2cc(-c3ccc(NS(=O)(=O)C4CC4)cn3)cn2)ccn1 [Example 18, N-(6-(1-(2-propylpyridin-4-yl)-1H-pyrazol-4-yl)pyridin-3-yl)cyclopropanesulfonamide]
  inhibition at 10 µM: > 75%

## CCCc1cc(-n2cc(-c3ccc(NS(=O)(=O)C(C)C)cc3)cn2)ccn1 [Example 4, N-(4-(1-(2-propylpyridin-4-yl)-1H-pyrazol-4-yl)phenyl)propane-2-sulfonamide]
  inhibition at 10 µM: > 75%

## CCCn1cc(-n2cc(-c3ccc(NS(C)(=O)=O)cc3)cn2)ccc1=O [Example 45, N-(4-(1-(6-oxo-1-propyl-1,6-dihydropyridin-3-yl)-1H-pyrazol-4-yl)phenyl)methanesulfonamide]
  inhibition at 1 µM: ≥ 30%
  inhibition at 10 µM: > 75%

## CCCc1cc(-n2cc(-c3ccc(NC4CCCC4)cn3)cn2)ccn1 [Example 23, N-cyclopentyl-6-(1-(2-propylpyridin-4-yl)-1H-pyrazol-4-yl)pyridin-3-amine]
  inhibition at 1 µM: 2 to 30%
  inhibition at 10 µM: > 75%

## CCCc1cc(-n2cc(-c3ccc(NCC(C)C)cn3)cn2)ccn1 [Example 15, N-isobutyl-6-(1-(2-propylpyridin-4-yl)-1H-pyrazol-4-yl)pyridin-3-amine]
  inhibition at 1 µM: 2 to 30%
  inhibition at 10 µM: > 75%

## CCCc1cc(-n2cc(-c3ccc(NCC4CC4)nc3)c(C)n2)ccn1 [Example 54, N-(cyclopropylmethyl)-5-(3-methyl-1-(2-propylpyridin-4-yl)-1H-pyrazol-4-yl)pyridin-2-amine]
  inhibition at 10 µM: 50 to 75%

## CCCc1cc(-n2cc(-c3ccc(NC4CCCC4)nc3)c(C)n2)ccn1 [Example 55, N-cyclopentyl-5-(3-methyl-1-(2-propylpyridin-4-yl)-1H-pyrazol-4-yl)pyridin-2-amine]
  inhibition at 1 µM: 2 to 30%
  inhibition at 10 µM: > 75%

## CCCc1cc(-n2cc(-c3ccc(NC(C)C)cc3Cl)cn2)ccn1 [Example 13, 3-chloro-N-isopropyl-4-(1-(2-propylpyridin-4-yl)-1H-pyrazol-4-yl)aniline]
  inhibition at 1 µM: ≥ 30%
  inhibition at 10 µM: > 75%

## CCCc1cc(-n2cc(-c3ccc(NC4CCOCC4)nc3)cn2)ccn1 [Example 52, 5-(1-(2-propylpyridin-4-yl)-1H-pyrazol-4-yl)-N-(tetrahydro-2H-pyran-4-yl)pyridin-2-amine]
  inhibition at 1 µM: ≥ 30%
  inhibition at 10 µM: > 75%

## CCCc1cc(-n2cc(-c3ccc(NC4CCC4)nc3)c(C)n2)ccn1 [Example 57, N-cyclobutyl-5-(3-methyl-1-(2-propylpyridin-4-yl)-1H-pyrazol-4-yl)pyridin-2-amine]
  inhibition at 1 µM: 2 to 30%
  inhibition at 10 µM: > 75%

## CCCc1cc(-n2cc(-c3ccc(NS(=O)(=O)C(F)(F)F)cc3Cl)cn2)ccn1 [Example 11, N-(3-chloro-4-(1-(2-propylpyridin-4-yl)-1H-pyrazol-4-yl)phenyl)-1,1,1-trifluoromethanesulfonamide]
  inhibition at 10 µM: 10 to 50%

## CCCn1cc(-n2cc(-c3ccc(NC(C)C)nc3)cn2)ccc1=O [Example 44, 5-(4-(6-(isopropylamino)pyridin-3-yl)-1H-pyrazol-1-yl)-1-propylpyridin-2(1H)-one]
  inhibition at 1 µM: 2 to 30%
  inhibition at 10 µM: > 75%
